Data published in ChEMBL document CHEMBL1201862, “PubChem BioAssay data set” (2004).
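Five concentrations, 48 hours, 96-well plates. GI50 is the concentration that inhibits growth by half.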 Calls of active or inactive are those of the source. Cut-off read from the data, not from the text of the source: active = GI50 up to about 1.1 µM and inactive = higher.

Assays:
Assay in all cases: NCI anticancer screen, dose series, 48 h
786-0 = tested on: 786-0
CCRF-CEM = tested on: CCRF-CEM
COLO 205 = tested on: COLO 205
EKVX = tested on: EKVX
HL-60 = tested on: HL-60
HOP-62 = tested on: HOP-62
HOP-92 = tested on: HOP-92
KM-20L2 = tested on: KM-20L2
KM12 = tested on: KM12
LOX IMVI = tested on: LOX IMVI
NCI-H460 = tested on: NCI-H460
OVCAR-3 = tested on: OVCAR-3
RXF 393 = tested on: RXF 393
SF-268 = tested on: SF-268
SF-539 = tested on: SF-539
SNB-75 = tested on: SNB-75
UACC-257 = tested on: UACC-257
UACC-62 = tested on: UACC-62

Measured: GI50

C=CCCCC(C#N)(c1ccccc1)N1CCCC1 (stereo not drawn)
inactive: 786-0 > 100 µM | CCRF-CEM > 100 µM | COLO 205 > 100 µM | EKVX > 100 µM | HL-60 > 100 µM | HOP-62 > 100 µM | HOP-92 > 100 µM | KM-20L2 > 100 µM | KM12 > 100 µM | LOX IMVI > 100 µM | NCI-H460 > 100 µM | OVCAR-3 > 100 µM | RXF 393 > 100 µM | SF-268 > 100 µM | SF-539 > 100 µM | SNB-75 > 100 µM | UACC-257 > 100 µM | UACC-62 > 100 µM

N#CC(C#N)=C1NC(=O)CC(=O)N1
inactive: 786-0 > 100 µM | CCRF-CEM > 100 µM | COLO 205 > 100 µM | EKVX > 100 µM | HL-60 > 100 µM | HOP-62 > 100 µM | HOP-92 > 100 µM | KM-20L2 > 100 µM | KM12 > 100 µM | LOX IMVI > 100 µM | NCI-H460 > 100 µM | OVCAR-3 > 100 µM | RXF 393 > 100 µM | SF-268 > 100 µM | SF-539 > 100 µM | SNB-75 > 100 µM | UACC-257 > 100 µM | UACC-62 > 100 µM

Cc1ccc(NC(=O)C2C3CCC(O3)C2C(=O)O)cc1 (stereo not drawn)
inactive: 786-0 > 40.6 µM | CCRF-CEM > 44.8 µM | COLO 205 35.7 µM | EKVX > 94.4 µM | HL-60 > 40.2 µM | HOP-62 > 100 µM | HOP-92 36.1 µM | KM-20L2 > 26.6 µM | KM12 > 100 µM | LOX IMVI > 38.7 µM | NCI-H460 > 71.4 µM | OVCAR-3 > 52.2 µM | RXF 393 15.8 µM | SF-268 > 53.2 µM | SF-539 > 57.7 µM | SNB-75 31.9 µM | UACC-257 > 100 µM | UACC-62 > 46.6 µM

NNC(=O)N/N=C1\CNC(=O)C(=O)C1c1nc2ccccc2s1 (stereo not drawn)
inactive: 786-0 > 100 µM | CCRF-CEM > 100 µM | COLO 205 > 100 µM | EKVX > 100 µM | HL-60 > 100 µM | HOP-62 > 100 µM | HOP-92 > 100 µM | KM-20L2 > 100 µM | KM12 > 100 µM | LOX IMVI > 100 µM | NCI-H460 > 100 µM | OVCAR-3 > 100 µM | RXF 393 > 100 µM | SF-268 > 100 µM | SF-539 > 100 µM | SNB-75 > 100 µM | UACC-257 > 100 µM | UACC-62 > 100 µM

CCC(CO)COC(=O)/C=C/C(=O)OCC(CC)CO (stereo not drawn)
inactive: 786-0 > 100 µM | CCRF-CEM 27.4 µM | COLO 205 > 100 µM | EKVX > 55.5 µM | HL-60 22.1 µM | HOP-62 > 100 µM | HOP-92 > 81.8 µM | KM-20L2 > 100 µM | KM12 > 100 µM | LOX IMVI > 100 µM | NCI-H460 > 100 µM | OVCAR-3 > 62.5 µM | RXF 393 > 65.3 µM | SF-268 > 84.3 µM | SF-539 > 100 µM | SNB-75 73.5 µM | UACC-257 > 100 µM | UACC-62 > 72.4 µM

N#Cc1ccc(Nc2cnc3ccc(N)cc3n2)cc1
inactive: 786-0 > 100 µM | CCRF-CEM > 100 µM | COLO 205 > 100 µM | EKVX > 100 µM | HL-60 > 100 µM | HOP-62 > 100 µM | HOP-92 > 100 µM | KM-20L2 > 100 µM | KM12 > 100 µM | LOX IMVI > 100 µM | NCI-H460 > 100 µM | OVCAR-3 > 100 µM | RXF 393 > 100 µM | SF-268 > 100 µM | SF-539 > 100 µM | SNB-75 > 100 µM | UACC-257 > 100 µM | UACC-62 > 100 µM

COc1c(OC)c(N)c2cc(C)c(=O)c(C)cc2c1N
inactive: 786-0 64.7 µM | CCRF-CEM 41.9 µM | COLO 205 35.4 µM | EKVX > 100 µM | HL-60 > 100 µM | HOP-62 > 100 µM | HOP-92 > 100 µM | KM-20L2 > 100 µM | KM12 > 100 µM | LOX IMVI 55.2 µM | NCI-H460 > 100 µM | OVCAR-3 > 100 µM | RXF 393 > 100 µM | SF-268 > 100 µM | SF-539 > 100 µM | SNB-75 56.4 µM | UACC-257 > 100 µM | UACC-62 > 100 µM

OC1CN(OC/C=C/c2ccccc2)CC(O)C1O (stereo not drawn)
inactive: 786-0 21.1 µM | CCRF-CEM > 100 µM | COLO 205 > 100 µM | EKVX > 100 µM | HL-60 > 100 µM | HOP-62 > 100 µM | HOP-92 > 100 µM | KM-20L2 > 100 µM | KM12 72.3 µM | LOX IMVI 46.1 µM | NCI-H460 63.4 µM | OVCAR-3 > 100 µM | RXF 393 > 100 µM | SF-268 > 100 µM | SF-539 > 100 µM | SNB-75 > 100 µM | UACC-257 > 100 µM | UACC-62 > 100 µM

C=C1CC(CCCl)(c2ccccc2)OC1=O (stereo not drawn)
inactive: 786-0 17.4 µM | CCRF-CEM 20 µM | COLO 205 29 µM | EKVX > 44 µM | HL-60 19.8 µM | HOP-62 > 100 µM | HOP-92 15.7 µM | KM-20L2 61.8 µM | KM12 44.7 µM | LOX IMVI 30.5 µM | NCI-H460 > 100 µM | OVCAR-3 26.1 µM | RXF 393 13.3 µM | SF-268 > 67 µM | SF-539 27.9 µM | SNB-75 22.4 µM | UACC-257 44.2 µM | UACC-62 48.4 µM

COc1c(OC2OC(CO)C(O)C(O)C2O)cc2c(c1OC)-c1ccc(OC)c(=O)cc1C(NC(C)=O)CC2 (stereo not drawn)
inactive: 786-0 > 100 µM | CCRF-CEM > 100 µM | COLO 205 > 28.3 µM | EKVX > 100 µM | HL-60 > 100 µM | HOP-62 > 100 µM | HOP-92 44.6 µM | KM-20L2 > 100 µM | KM12 > 100 µM | LOX IMVI > 100 µM | NCI-H460 > 100 µM | OVCAR-3 > 89.7 µM | RXF 393 > 83.6 µM | SF-268 > 100 µM | SF-539 > 100 µM | SNB-75 25.3 µM | UACC-257 > 100 µM | UACC-62 60.1 µM

CCCCCC(=O)N[C@H]1CCc2cc(O)c(O)c(O)c2-c2ccc(SC)c(=O)cc21
inactive: 786-0 44.5 µM | CCRF-CEM 23.2 µM | COLO 205 23.3 µM | EKVX > 63.1 µM | HL-60 20.5 µM | HOP-62 47 µM | HOP-92 25.7 µM | KM-20L2 27.6 µM | KM12 39.6 µM | LOX IMVI 23.1 µM | NCI-H460 38.4 µM | OVCAR-3 35.2 µM | RXF 393 38.9 µM | SF-268 38.7 µM | SF-539 20.9 µM | SNB-75 32.2 µM | UACC-257 37.5 µM | UACC-62 31.6 µM
